{"source": "patent US6355799B1", "about": "“Substituted benzene compounds, process for their preparation, and herbicidal and defoliant compositions containing them” (ISK Americas Incorporated, priority 1997, dated 2002)", "assay_type_in_all_cases": "in vivo", "key": {"[1]": {"tested_on": "field corn (Zea mays L., var. Dekalb 535, CORN)", "experiment": "Pre-emerge test, crop safety", "conditions": "pre-emerge, rated 14 days after application, 0 = no damage, 100 = complete death", "in_short": "(§1)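 Visual ratings on a 0-100 scale (0 no damage, 100 all plants dead) were taken at 14 days after treatment. Rates of 15-1000 g ai/ha in acetone, 187 l/ha, were sprayed onto soil one day after planting (pre-emerge) or onto 2-3 leaf plants with 0.25% v/v surfactant (post-emerge).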"}, "[2]": {"tested_on": "upland rice (Oryza sp., var. Tebonnet, RICE)", "experiment": "Pre-emerge test, crop safety", "conditions": "pre-emerge, rated 14 days after application, 0 = no damage, 100 = complete death", "in_short": "as §1"}, "[3]": {"tested_on": "redroot pigweed (Amaranthus retroflexus, AMARE)", "experiment": "Pre-emerge test, greenhouse herbicide activity screening", "conditions": "pre-emerge, rated 14 days after application, 0 = no damage, 100 = complete death", "in_short": "(§2)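 Compounds in acetone were track-sprayed at 15-1000 g ai/ha (187 l/ha) on sandy loam pots: pre-emerge one day after seeding, post-emerge at 2-3 leaf stage with 0.25% v/v non-ionic surfactant. Phytotoxicity was rated 14 days later on a 0 (no damage) to 100 (complete death) scale.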"}, "[4]": {"tested_on": "field corn (Zea mays L., var. Dekalb 535, CORN)", "experiment": "Post-emerge test, crop safety", "conditions": "phytotoxicity rating 0-100 (0 no damage, 100 complete death), 14 days after application", "in_short": "as §2"}, "[5]": {"tested_on": "upland rice (Oryza sp., var. Tebonnet, RICE)", "experiment": "Post-emerge test, crop safety", "conditions": "phytotoxicity rating 0-100 (0 no damage, 100 complete death), 14 days after application", "in_short": "as §2"}, "[6]": {"tested_on": "common ragweed (Ambrosia artemisizfolia L., AMBEL)", "experiment": "Post-emerge test, greenhouse herbicide activity screening", "conditions": "phytotoxicity rating 0-100 (0 no damage, 100 complete death), 14 days after application", "in_short": "(§3)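 Plants grown in 10 cm pots of sandy loam mix received acetone-dissolved compounds through a moving flat-fan nozzle. Doses ranged from 15 to 1000 g ai/ha. Pre-emerge pots were seeded one day earlier, post-emerge pots 8–21 days earlier. Fourteen days on, each pot was graded 0–100 for damage.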"}, "[7]": {"tested_on": "redroot pigweed (Amaranthus retroflexus, AMARE)", "experiment": "Post-emerge test, greenhouse herbicide activity screening", "conditions": "phytotoxicity rating 0-100 (0 no damage, 100 complete death), 14 days after application", "in_short": "as §3"}, "[8]": {"tested_on": "johnsongrass (Sorghum halepense, SORHA)", "experiment": "Post-emerge test, greenhouse herbicide activity screening", "conditions": "phytotoxicity rating 0-100 (0 no damage, 100 complete death), 14 days after application", "in_short": "as §3"}, "[9]": {"tested_on": "barnyardgrass (Echinochloa crus-galli, ECHCG)", "experiment": "Post-emerge test, greenhouse herbicide activity screening", "conditions": "phytotoxicity rating 0-100 (0 no damage, 100 complete death), 14 days after application", "in_short": "as §3"}, "[10]": {"tested_on": "sicklepod (Cassia obtusifolia, CASOB)", "experiment": "Post-emerge test, greenhouse herbicide activity screening", "conditions": "phytotoxicity rating 0-100 (0 no damage, 100 complete death), 14 days after application", "in_short": "as §3"}, "[11]": {"tested_on": "ivyleaf morningglory (Ipomoea hederacea, IPOHE)", "experiment": "Post-emerge test, greenhouse herbicide activity screening", "conditions": "phytotoxicity rating 0-100 (0 no damage, 100 complete death), 14 days after application", "in_short": "as §3"}, "[12]": {"tested_on": "lambsquarters (Chenopodium album, CHEAL)", "experiment": "Post-emerge test, greenhouse herbicide activity screening", "conditions": "phytotoxicity rating 0-100 (0 no damage, 100 complete death), 14 days after application", "in_short": "as §3"}, "[13]": {"tested_on": "large crabgrass (Digitaria sanguinalis, DIGSA)", "experiment": "Post-emerge test, greenhouse herbicide activity screening", "conditions": "phytotoxicity rating 0-100 (0 no damage, 100 complete death), 14 days after application", "in_short": "as §3"}, "[14]": {"tested_on": "velvetleaf (Abutilon theophrasti, ABUTH)", "experiment": "Post-emerge test, greenhouse herbicide activity screening", "conditions": "phytotoxicity rating 0-100 (0 no damage, 100 complete death), 14 days after application", "in_short": "as §3"}, "[15]": {"tested_on": "common ragweed (Ambrosia artemisizfolia L., AMBEL)", "experiment": "Pre-emerge test, greenhouse herbicide activity screening", "conditions": "pre-emerge, rated 14 days after application, 0 = no damage, 100 = complete death", "in_short": "as §2"}, "[16]": {"tested_on": "johnsongrass (Sorghum halepense, SORHA)", "experiment": "Pre-emerge test, greenhouse herbicide activity screening", "conditions": "pre-emerge, rated 14 days after application, 0 = no damage, 100 = complete death", "in_short": "as §2"}, "[17]": {"tested_on": "barnyardgrass (Echinochloa crus-galli, ECHCG)", "experiment": "Pre-emerge test, greenhouse herbicide activity screening", "conditions": "pre-emerge, rated 14 days after application, 0 = no damage, 100 = complete death", "in_short": "as §2"}, "[18]": {"tested_on": "sicklepod (Cassia obtusifolia, CASOB)", "experiment": "Pre-emerge test, greenhouse herbicide activity screening", "conditions": "pre-emerge, rated 14 days after application, 0 = no damage, 100 = complete death", "in_short": "as §2"}, "[19]": {"tested_on": "ivyleaf morningglory (Ipomoea hederacea, IPOHE)", "experiment": "Pre-emerge test, greenhouse herbicide activity screening", "conditions": "pre-emerge, rated 14 days after application, 0 = no damage, 100 = complete death", "in_short": "as §2"}, "[20]": {"tested_on": "lambsquarters (Chenopodium album, CHEAL)", "experiment": "Pre-emerge test, greenhouse herbicide activity screening", "conditions": "pre-emerge, rated 14 days after application, 0 = no damage, 100 = complete death", "in_short": "as §2"}, "[21]": {"tested_on": "large crabgrass (Digitaria sanguinalis, DIGSA)", "experiment": "Pre-emerge test, greenhouse herbicide activity screening", "conditions": "pre-emerge, rated 14 days after application, 0 = no damage, 100 = complete death", "in_short": "as §2"}, "[22]": {"tested_on": "velvetleaf (Abutilon theophrasti, ABUTH)", "experiment": "Pre-emerge test, greenhouse herbicide activity screening", "conditions": "pre-emerge, rated 14 days after application, 0 = no damage, 100 = complete death", "in_short": "as §2"}, "[23]": {"tested_on": "green foxtail (Setaria viridis, SETVI)", "experiment": "Pre-emerge test, greenhouse herbicide activity screening", "conditions": "pre-emerge, rated 14 days after application, 0 = no damage, 100 = complete death", "in_short": "as §2"}}}
{"smiles": "COc1c(Cl)cc(F)c(-n2c(=O)cc(C(F)(F)F)n(C)c2=O)c1NC(=O)c1cccc(C)c1", "note": "[2-23]", "values": [{"measurement": "Pre-emerge crop damage CORN (phytotoxicity rating, scale 0-100)", "setting": "[1]; 63 g ai/ha", "result": 60}, {"measurement": "Pre-emerge crop damage CORN (phytotoxicity rating, scale 0-100)", "setting": "[1]; 250 g ai/ha", "result": 100}, {"measurement": "Pre-emerge crop damage RICE (phytotoxicity rating, scale 0-100)", "setting": "[2]; 63 g ai/ha", "result": 80}, {"measurement": "Pre-emerge crop damage RICE (phytotoxicity rating, scale 0-100)", "setting": "[2]; 250 g ai/ha", "result": 95}, {"measurement": "Pre-emerge Herbicidal Activity AMARE (phytotoxicity rating, scale 0-100)", "setting": "[3]; 63 g ai/ha", "result": 100}, {"measurement": "Pre-emerge Herbicidal Activity AMARE (phytotoxicity rating, scale 0-100)", "setting": "[3]; 250 g ai/ha", "result": 100}, {"measurement": "Post-emerge Herbicidal Activity CORN (crop damage)", "setting": "[4]; 63 g ai/ha", "result": 40}, {"measurement": "Post-emerge Herbicidal Activity CORN (crop damage)", "setting": "[4]; 250 g ai/ha", "result": 90}, {"measurement": "Post-emerge Herbicidal Activity RICE (crop damage)", "setting": "[5]; 63 g ai/ha", "result": 50}, {"measurement": "Post-emerge Herbicidal Activity RICE (crop damage)", "setting": "[5]; 250 g ai/ha", "result": 95}, {"measurement": "Post-emerge Herbicidal Activity AMBEL", "setting": "[6]; 63 g ai/ha", "result": 90}, {"measurement": "Post-emerge Herbicidal Activity AMBEL", "setting": "[6]; 250 g ai/ha", "result": 100}, {"measurement": "Post-emerge Herbicidal Activity AMARE", "setting": "[7]; 63 g ai/ha", "result": 70}, {"measurement": "Post-emerge Herbicidal Activity AMARE", "setting": "[7]; 250 g ai/ha", "result": 100}, {"measurement": "Post-emerge Herbicidal Activity SORHA", "setting": "[8]; 63 g ai/ha", "result": 50}, {"measurement": "Post-emerge Herbicidal Activity SORHA", "setting": "[8]; 250 g ai/ha", "result": 90}, {"measurement": "Post-emerge Herbicidal Activity ECHCG", "setting": "[9]; 63 g ai/ha", "result": 0}, {"measurement": "Post-emerge Herbicidal Activity ECHCG", "setting": "[9]; 250 g ai/ha", "result": 30}, {"measurement": "Post-emerge Herbicidal Activity CASOB", "setting": "[10]; 63 g ai/ha", "result": 95}, {"measurement": "Post-emerge Herbicidal Activity CASOB", "setting": "[10]; 250 g ai/ha", "result": 100}, {"measurement": "Post-emerge Herbicidal Activity IPOHE", "setting": "[11]; 63 g ai/ha", "result": 100}, {"measurement": "Post-emerge Herbicidal Activity IPOHE", "setting": "[11]; 250 g ai/ha", "result": 100}, {"measurement": "Post-emerge Herbicidal Activity CHEAL", "setting": "[12]; 63 g ai/ha", "result": 70}, {"measurement": "Post-emerge Herbicidal Activity CHEAL", "setting": "[12]; 250 g ai/ha", "result": 90}, {"measurement": "Post-emerge Herbicidal Activity DIGSA", "setting": "[13]; 63 g ai/ha", "result": 0}, {"measurement": "Post-emerge Herbicidal Activity DIGSA", "setting": "[13]; 250 g ai/ha", "result": 70}, {"measurement": "Post-emerge Herbicidal Activity ABUTH", "setting": "[14]; 63 g ai/ha", "result": 100}, {"measurement": "Post-emerge Herbicidal Activity ABUTH", "setting": "[14]; 250 g ai/ha", "result": 100}, {"measurement": "Pre-emerge Herbicidal Activity AMBEL (phytotoxicity rating, scale 0-100)", "setting": "[15]; 63 g ai/ha", "result": 100}, {"measurement": "Pre-emerge Herbicidal Activity AMBEL (phytotoxicity rating, scale 0-100)", "setting": "[15]; 250 g ai/ha", "result": 100}, {"measurement": "Pre-emerge Herbicidal Activity SORHA (phytotoxicity rating, scale 0-100)", "setting": "[16]; 63 g ai/ha", "result": 60}, {"measurement": "Pre-emerge Herbicidal Activity SORHA (phytotoxicity rating, scale 0-100)", "setting": "[16]; 250 g ai/ha", "result": 90}, {"measurement": "Pre-emerge Herbicidal Activity ECHCG (phytotoxicity rating, scale 0-100)", "setting": "[17]; 63 g ai/ha", "result": 80}, {"measurement": "Pre-emerge Herbicidal Activity ECHCG (phytotoxicity rating, scale 0-100)", "setting": "[17]; 250 g ai/ha", "result": 100}, {"measurement": "Pre-emerge Herbicidal Activity CASOB (phytotoxicity rating, scale 0-100)", "setting": "[18]; 63 g ai/ha", "result": 70}, {"measurement": "Pre-emerge Herbicidal Activity CASOB (phytotoxicity rating, scale 0-100)", "setting": "[18]; 250 g ai/ha", "result": 100}, {"measurement": "Pre-emerge Herbicidal Activity IPOHE (phytotoxicity rating, scale 0-100)", "setting": "[19]; 63 g ai/ha", "result": 100}, {"measurement": "Pre-emerge Herbicidal Activity IPOHE (phytotoxicity rating, scale 0-100)", "setting": "[19]; 250 g ai/ha", "result": 100}, {"measurement": "Pre-emerge Herbicidal Activity CHEAL (phytotoxicity rating, scale 0-100)", "setting": "[20]; 63 g ai/ha", "result": 100}, {"measurement": "Pre-emerge Herbicidal Activity CHEAL (phytotoxicity rating, scale 0-100)", "setting": "[20]; 250 g ai/ha", "result": 100}, {"measurement": "Pre-emerge Herbicidal Activity DIGSA (phytotoxicity rating, scale 0-100)", "setting": "[21]; 63 g ai/ha", "result": 70}, {"measurement": "Pre-emerge Herbicidal Activity DIGSA (phytotoxicity rating, scale 0-100)", "setting": "[21]; 250 g ai/ha", "result": 100}, {"measurement": "Pre-emerge Herbicidal Activity ABUTH (phytotoxicity rating, scale 0-100)", "setting": "[22]; 63 g ai/ha", "result": 100}, {"measurement": "Pre-emerge Herbicidal Activity ABUTH (phytotoxicity rating, scale 0-100)", "setting": "[22]; 250 g ai/ha", "result": 100}, {"measurement": "Pre-emerge Herbicidal Activity SETVI (phytotoxicity rating, scale 0-100)", "setting": "[23]; 63 g ai/ha", "result": 100}, {"measurement": "Pre-emerge Herbicidal Activity SETVI (phytotoxicity rating, scale 0-100)", "setting": "[23]; 250 g ai/ha", "result": 100}]}
